In patent US20260356854A1, “Prodrugs of Varenicline and Compounds Containing Vulnerable Amines” (Pfizer Inc., priority 2022, published 2026):
Read-outs that look alike come from different tables or passages of the source.

How the values were obtained:
[1] = Nitrosamine formation under nitrosating conditions in solution (UPLC-MS); type: physicochemical; settings: for 10 min. N—NO Level: area % by UV; for 2 h N—NO Level / 42 h N—NO Level: area % by UV (210 nm)
Experimental: A study was conducted to determine whether varenicline prodrug (Compound 1) forms nitrosamine under nitrosating conditions in solution as compared to varenicline. Regular UPLC-MS detection was utilized. Varenicline free base (0.1 mmol), varenicline tartrate salt (0.1 mmol), and Compound 1 (0.1 mmol) were added to separate vials. THF (2.2 ml) was added to each vial. NaNO2 (0.1 eq) and AcOH (0.1 eq) (added as a 0.1 wt % NaNO2 solution with equivalent molar of acetic acid was also added to each vial to provide a total volume of ~2.5 ml/vial.

[2] = system: chronic cigarette smokers; settings: Study 3, patient-directed 0.5 mg QD to 1 mg BID, cited from earlier work
[3] = system: chronic cigarette smokers; settings: Study 2, cited from earlier work; for co-confirmed continuous abstinence during weeks 9 through 12: placebo 12%; for continuously abstinent from one week after TQD through the end of treatment: placebo 8%
[4] = system: chronic cigarette smokers; settings: Study 5, cited from earlier work
[5] = system: chronic cigarette smokers; settings: Study 4, cited from earlier work
[6] = system: chronic cigarette smokers; settings: total dose of 1 mg per day or 2 mg per day; six weeks; initial evidence; cited from earlier work
[7] = Moisture uptake / hygroscopicity (solid-state characterization); type: physicochemical; settings: 90% RH/25 °C; crystalline anhydrous form
Experimental: (§1) Compound 1 is a crystalline anhydrous solid form as represented by its PXRD pattern (FIG. 1). […] Compound 1 has a melting onset of ~227 °C and is non-hygroscopic, i.e., less than 0.2% moisture uptake at 90% RH/25 °C.

[8] = Study to assess the bioequivalence of Compound 1 and varenicline tartrate (oral plasma concentrations); type: in vivo, monkey (non-human primates); settings: monkey, capsule, 0.04 mg eq/kg
Experimental: FIG. 3 is a graph of the mean monkey plasma concentrations of varenicline following an oral dose of 0.04 mg eq/kg of prodrug (Compound 1) and varenicline tartrate.
A prodrug of varenicline (Compound 1) prepared as described above in Example 1 was orally dosed in capsule form to non-human primates to assess bioequivalence to varenicline tartrate API (Chantix). FIG. 3 is a graph of the mean monkey plasma concentrations of varenicline following an oral dose of 0.04 mg eq/kg of prodrug (Compound 1) and 0.04 mg eq/kg of varenicline tartrate.

[9] = Weight loss on heating (solid-state characterization); type: physicochemical; settings: up to 150 °C; crystalline anhydrous form
Experimental: as §1

[10] = nitrosating conditions: NaNO2 0.1 eq, AcOH 0.1 eq, THF, 10 min
[11] = nitrosating conditions: NaNO2 0.1 eq, AcOH 0.1 eq, THF
[12] = varenicline 1 mg BID compared to bupropion SR or placebo

SMILES: Cl.c1cnc2cc3c(cc2n1)C1CNCC3C1 [Varenicline Free base, 5,8,14-triazatetracyclo [10.3.1.0^2,11.0^4,9]hexadeca-2(11),3,5,7,9-pentaene]
- 10 min. N—NO Level [1, 10]: Not detected
- 2 h N—NO Level [1, 11]: Not detected
- 42 h N—NO Level [1, 11]: Not detected

SMILES: Cl.c1cnc2cc3c(cc2n1)C1CNCC3C1 [varenicline, 5,8,14-triazatetracyclo[10.3.1.0^2,11.0^4,9]hexadeca-2(11),3,5,7,9-pentaene]
- continuously abstinent from one week after TQD through the end of treatment ([2]; placebo 9%): 29%
- co-confirmed continuous abstinence during weeks 9 through 12 ([2]; placebo 12%): 40%
- co-confirmed continuous abstinence during weeks 9 through 12 ([3]; 1 mg per day (0.5 mg BID)): Forty five
- continuously abstinent from one week after TQD through the end of treatment ([3]; 1 mg per day): 31%
- co-confirmed continuous abstinence during weeks 9 through 12 ([3]; 2 mg per day (1 mg BID)): 51%
- continuously abstinent from one week after TQD through the end of treatment ([3]; 2 mg per day): 31%
- rate of co-confirmed abstinence during weeks 9 through 12, comparison in words [4, 12]: superior
- continuously abstinent from one week after TQD through the end of treatment ([4]; varenicline 1 mg BID, placebo 11%): 29%
- co-confirmed abstinence during weeks 9 through 12 ([4]; varenicline 1 mg BID, placebo 18%): 44%
- rate of co-confirmed abstinence during weeks 9 through 12, comparison in words [5, 12]: superior
- continuously abstinent from one week after TQD through the end of treatment ([5]; varenicline 1 mg BID, placebo 12%): 29%
- co-confirmed abstinence during weeks 9 through 12 ([5]; varenicline 1 mg BID, placebo 17%): 44%
- effectiveness as an aid to smoking cessation (in words) [6]: effective as an aid to smoking cessation

SMILES: O=C(O)C(O)C(O)C(=O)O.c1cnc2cc3c(cc2n1)[C@@H]1CNC[C@H]3C1 [Varenicline tartrate]
- 10 min. N—NO Level (by MS) ([1]; nitrosating conditions: NaNO2 0.1 eq, AcOH 0.1 eq, THF, 10 min, MS detection): Detectable by MS
- 10 min. N—NO Level [1, 10]: Not detected by UV
- 2 h N—NO Level [1, 11]: 0.83 A %
- 42 h N—NO Level [1, 11]: 5.15 A %

SMILES: Cc1ncc2c(c1O)[C@H](N1C[C@H]3C[C@@H](C1)c1cc4nccnc4cc13)OC2 [Compound 1, (R)-6-methyl-1-((6R,10S)-6,7,9,10-tetrahydro-8H-6,10-methanoazepino[4,5-g]quinoxalin-8-yl)-1,3-dihydrofuro[3,4-c]pyridin-7-ol]
- hygroscopicity (in words) [7]: non-hygroscopic
- moisture uptake [7]: less than 0.2%
- prodrug remaining in the systemic circulation ([8]; analyte prodrug): no prodrug remaining in the systemic circulation
- bioequivalence (plasma concentration over time) of the varenicline released from the prodrug ([8]; analyte varenicline, vs varenicline tartrate 0.04 mg eq/kg): comparable to varenicline tartrate
- nitrosamine formation under nitrosating conditions (in words) ([1]; as compared to varenicline tartrate): does not form nitrosamines
- 10 min. N—NO Level [1, 10]: Not detected
- 2 h N—NO Level [1, 11]: Not detected.
- 42 h N—NO Level [1, 11]: Not detected
- weight loss [9]: less than 0.1%
